“Also recorded” adds a separate entry of the source.
How the values were obtained:
THP1 cells = assay: Type III IFN (IL-29) production in THP1 cells (ELISA); type: cell-based; details: 21 hrs
Protocol: Level of IL-29 in culture supernatant was determined using ELISA. Results shown are the average±standard deviation of duplicate wells.

CT26 colon cancer = assay: Syngeneic CT26 colon cancer mouse model; type: in vivo
[1] = test system: mouse A20 B cell lymphoma tumor cells; assay: Inhibition of mouse A20 B cell lymphoma tumor cells; details: FIGS. 48A-48D
STING [2] = target: T1, STING (Homo sapiens, UniProt Q86WV6); assay: STING dependence of cell death; type: cell-based
T1 construct: host or cells: SZ14 HEK293 cells stably expressing ISG54 ISRE-luc reporter

[3] = test system: 4T1.luc2 orthotopic murine breast carcinoma; assay: 4T1.luc2 orthotopic murine breast carcinoma model; type: in vivo, mice
Protocol: The efficacy of intraperitoneal administration of Cmd 1 was investigated in the 4T1.luc2 orthotopic murine breast carcinoma model. Thirty female BALB/c mice between 7-10 weeks old were randomized into four treatment groups based on Day 1 body weight, and the treatment was carried out according to the regimen outlined in Table 4 below. Cmd 1 was dissolved in saline and administered at 10 mL/kg (0.200 mL/20 g mouse), with a cell injection volume of 0.05 mL/mouse.
Each animal was monitored individually. The endpoint of the experiment was a tumor volume of […] or 45 days. Animals in Groups 1 and 2 were subjected to whole body bioluminescent imaging starting on Day 5 and once a week thereafter (Days 12, 19, 26, 33, and 41). At the endpoint, blood and tissue (lung, lymph nodes, spleen, and tumor) was analyzed for presence of metastases and biomarker (CD45, CD3, CD4, CD8, CD11b, CD25, Ly-6G, Ly-6C, FoxP3) levels.

[4] = test system: CD8+ T cells, CD4+ T cells, and MDSCs; assay: Flow cytometry of immune cells in spleen, lymph nodes and blood; type: in vivo; details: lymph nodes and blood on day 19, compared with vehicle
STING [5] = target: T1, STING; assay: STING binding / type I IFN signaling (ISRE-luciferase); type: cell-based; details: similar to 2′,3′-cGAMP
Protocol: SZ14 HEK293 cells stably expressing the ISG54 ISRE-luc reporter gene were treated with compound exemplary compounds Cmd 1, 2′ 3-cGAMP (natural STING ligand), or DMSO in the presence of digitonin for 5-6 hrs. ISRE-luciferase activity was determined and normalized to DMSO treated cells (mean±standard deviation of triplicate wells per stimulant).

[6] = test system: tumor cells and THP1 cells; assay: Tumor cell growth, high-content image-based approach

T1 sequence (Q86WV6 whole entry): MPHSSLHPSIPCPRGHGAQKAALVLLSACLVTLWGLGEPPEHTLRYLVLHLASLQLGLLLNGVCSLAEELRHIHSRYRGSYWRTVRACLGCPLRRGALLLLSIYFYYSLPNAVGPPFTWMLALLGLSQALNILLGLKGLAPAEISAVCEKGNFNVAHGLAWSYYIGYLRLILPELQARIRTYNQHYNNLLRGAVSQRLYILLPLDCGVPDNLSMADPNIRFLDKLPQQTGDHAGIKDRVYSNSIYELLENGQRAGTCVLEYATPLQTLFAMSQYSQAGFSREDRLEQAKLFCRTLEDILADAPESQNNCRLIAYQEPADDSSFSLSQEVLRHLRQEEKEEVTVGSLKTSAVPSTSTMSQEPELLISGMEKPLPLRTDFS

CCCCCCCCCCOc1ccc(C(=O)Oc2ccc(CSP3(=O)OC[C@H]4O[C@@H](n5cnc6c(N)ncnc65)[C@H](F)[C@@H]4OP(=O)(O)OC[C@H]4O[C@@H](n5ccc(=O)[nH]c5=O)[C@H](F)[C@@H]4O3)cc2)cc1.N (stereo partly drawn) [Cmd 1]
type III interferon (IL-29) production (THP1 cells): induce type III interferon (IL-29) production | abscopal antitumoral activity, tumor volume left and right flank (CT26 colon cancer; administered intratumorally, 13 days post initiation treatment, vs vehicle): considerable tumor growth inhibition | survival rate (CT26 colon cancer; combination therapy with an anti-CTLA4 antibody): significantly improve the survival rate | tumor growth (CT26 colon cancer; doses 10 μg, 30 μg, and 100 μg, vs vehicle): considerable tumor growth inhibition at all three doses | tumor growth (CT26 colon cancer; intratumoral administration, vs vehicle (FIG. 79)): considerable tumor growth inhibition | tumor growth (CT26 colon cancer; intratumoral administration, vs vehicle, vehicle and Ethanol (FIG. 80)): considerable tumor growth inhibition | survival rate (CT26 colon cancer; monotherapy): significantly improve the survival rate | tumor growth (CT26 colon cancer; syngeneic CT26 colon cancer model (FIG. 62)): highly effective in inhibiting tumor growth | inhibition of tumor cells [1]: inhibits mouse A20 B cell lymphoma tumor cells | STING dependence of induction of cell death (STING [2]): STING-mediated | tumor growth / tumor volume ([3]; 10 mg/kg ip days 5, 7, 9, 11, 14, 18, compared with control): significant decline in tumor volume; also recorded: significant decrease in tumor growth | tumor growth ([3]; 4T1 breast cancer model, compared with vehicle (FIG. 75)): considerable tumor growth inhibition | tumor growth (luminescence images) ([3]; intraperitoneal administration, compared with vehicle (FIG. 82)): considerable tumor growth inhibition | induction of CD8+ T cells, CD4+ T cells, and MDSCs [4]: increase in CD8+ T cells, CD4+ T cells, and MDSCs | STING binding and type 1 IFN signaling (STING [5]): binds to STING to activate type 1 IFN signaling | anti-tumor activity ([6]; high-content image-based approach (FIG. 49)): anti-tumor activity | STING dependence of tumor cell growth inhibition ([6]; tumor cells and THP1 cells): STING dependent | tumor cell growth ([6]; tumor cells and THP1 cells, high-content image-based approach): inhibits tumor cell growth

Source: patent publication US11033569B2, “Compounds,Compositions, and methods for the treatment of disease” (Sperovie Biosciences, Inc., priority 2016, dated 2021)
